Measured values published in patent US8846937B2, “Mono quaternary ammonium salts and methods for modulating neuronal nicotinic acetylcholine receptors” (University of Kentucky Research Foundation, priority 2006, dated 2014).

Legend:
[1] = target: T1, Rat Striatal Nicotinic Receptors ([^3H]NIC binding) (Rattus norvegicus, UniProt P09483+P12390); assay: Inhibition of [^3H]nicotine binding to brain membranes; settings: 3 nM [^3H]NIC; for inhibition at 0.1 µM: % inhibition at 100 nM analog, nonspecific 10 μM nicotine; for Ki: full concentration effect
T1 construct: Whole brain, excluding cortex and cerebellum, was homogenized; from tissue; host or cells: rat brain membranes (whole brain excluding cortex and cerebellum)
Description: (§1) Test compounds of Formula (I), representing the mono quaternary nicotine analogs of the present invention, were evaluated to determine the effect of a test compound on nicotine-binding and methyllycaconitine-binding mediated by nicotine acetylcholine receptors.
(§2) Homogenate was centrifuged (25,000 g, 15 min, 4° C.). Pellets were resuspended in 20 volumes of buffer and incubated at 37° C., for 10 min, cooled to 4° C. and centrifuged (25,000 g, 15 min, 4° C.). Pellets were resuspended and centrifuged using the same conditions. […] Upon use, final pellets were resuspended in ˜20 volumes of assay buffer. Samples (250 μl) contained 100-140 μg of membrane protein, 3 nM [^3H]nicotine or 3 nM [^3H]methyllycaconitine (MLA), and test compounds of Formula (I) (100 nM) in assay buffer containing 50 mM Tris. A control sample absent test compounds of Formula (I) was also prepared. In the [^3H]nicotine-binding assay and [^3H]MLA-binding assay, nonspecific-binding was determined in the presence of 10 μM nicotine and 10 μM MLA, respectively. Incubations proceeded for 60 min at a room temperature using 96-well plates, and were terminated by harvesting on Unifilter-96 GF/B filter plates presoaked in 0.5% polyethylenimine, using a Packard FilterMate harvester. After washing 5 times with 350 μl ice-cold assay buffer, the filter plates were dried (60 min, 4° C.), bottom-sealed, and filled with Packard's MicroScint 20 cocktail (40 μl/well). After 60 min, filter plates were top-sealed, and levels of radioactivity were determined using a Packard TopCount. Protein concentrations were determined using the Bradford dye-binding procedure using bovine serum albumin as a standard protein.
Specific binding in the [^3H]NIC binding assay is calculated as the difference between the total binding of 3 nM [^3H]NIC and nonspecific binding in the presence of 10 μM cold nicotine. […] Analog-induced inhibition of nicotine-evoked [^3H]DA release is calculated as a percent of that in the absence of the mono quaternary ammonium analog. ND indicates not determined.

[2] = system: nicotinic receptors, NIC-evoked [^3H]DA release from rat striatal slices; assay: Inhibition of nicotine-evoked [^3H]dopamine release from superfused rat striatal slices; assay type: cell-based; settings: 1 h, 100 nM analog superfused 60 minutes prior to NIC (10 μM)
Description: Rat striatal slices (500 μm thickness, 6-8 mg wet weight) were incubated for 30 minutes in Krebs buffer (118 mM NaCl, 4.7 mM KCl, 1.2 mM MgCl2, 1.0 mM NaH2PO4, 1.3 mM CaCl2, 11.1 mM glucose, 25 mM NaHCO3, 0.11 mM L-ascorbic acid, and 0.004 mM disodium EDTA at pH 7.4, and saturated with 95% O2/5% CO2) in a metabolic shaker at 34° C. Slices were rinsed with 15 mL of fresh buffer, and were incubated for an additional 30 minutes in fresh buffer containing 0.1 μM [^3H]dopamine (DA; 6 slices/3 mL). Subsequently, slices were rinsed with 15 mL of fresh buffer and transferred to a glass superfusion chamber. Slices were superfused (1.0 mL/min) for 60 minutes with Krebs buffer containing nomifensine (10 μM) and pargyline (10 μM), and maintained at 34° C., pH 7.4, with continual aeration (95% O2/5% CO2). Two five minute samples (5 mL each) were collected to determine basal outflow of [^3H]DA. The test compounds of Formula (I) were added to the superfusion buffer after the collection of the second sample, and were maintained in the buffer until 12 consecutive five minute samples were collected. Subsequently, S-(−)-nicotine (10 μM) was added to the buffer, and an additional 12 consecutive five minute samples were collected. At the end of the experiment, each slice was solubilized, and the [^3H]content of the tissue determined.
Radioactivity in the superfusate and tissue samples was determined by liquid scintillation spectroscopy. Fractional release of tritium collected in each sample was divided by the total tritium present in the tissue at the time of sample collection, and the fractional release of tritium collected was expressed as a percentage of total tritium. Basal [^3H]outflow was calculated from the average of the tritium collected in the two five minute samples just before addition of a test compound of Formula (I). The sum of the increase in collected tritium resulting from either exposure to a test compound of Formula (I), or exposure to S(−) nicotine in the absence and presence of a test compound of Formula (I) equaled total [^3H]overflow. [^3H]Overflow was calculated by subtracting the [^3H]outflow during an equivalent period of pre-stimulation from the values in samples collected during and after drug exposure. Inasmuch as the radio-labeled compounds were not separated and identified, the tritium collected in superfusate is referred to as either [^3H]outflow or [^3H]overflow, rather than as [^3H]DA. [^3H]Overflow primarily represents [^3H]DA in the presence of nomifensine and pargyline in the superfusion buffer.
The quaternary analogs of Formula (I) were also evaluated for their ability to inhibit NIC-evoked [^3H]DA release. In these experiments, the striatal slices were superfused for 60 minutes with 100 nM concentration of the quaternary analogs prior to NIC (10 μM) exposure. Antagonist activity was evaluated by comparing the NIC-evoked [^3H]overflow in the absence and presence of the analogs. The relative order of potency of the quaternary analogs of Formula (I) for inhibition of NIC-evoked [^3H]DA release from rat striatal slices is illustrated in Table 1.
^aData are % inhibition at 100 nM concentration of the mono quaternary analogs for at least 1-3 independent experiments; with the exception of when a Ki value in μM is provided, in which case a full concentration effect was evaluated. Specific binding in the [^3H]NIC binding assay is calculated as the difference between the total binding of 3 nM [^3H]NIC and nonspecific binding in the presence of 10 μM cold nicotine. Specific binding for the [^3H]MLA binding assay is calculated as the difference between the total binding of 2.5 nM [^3H]MLA to the receptors alone and its nonspecific binding in the presence of 1 μM cold MLA. Analog-induced inhibition of nicotine-evoked [^3H]DA release is calculated as a percent of that in the absence of the mono quaternary ammonium analog. ND indicates not determined.

[3] = target: T2, Rat Striatal Nicotinic Receptors ([^3H]MLA binding) (Rattus norvegicus, UniProt Q05941); assay: Inhibition of [^3H]methyllycaconitine (MLA) binding to brain membranes; settings: for inhibition at 0.1 µM: % inhibition at 100 nM analog, 2.5 nM [^3H]MLA, nonspecific 1 μM MLA (footnote); for Ki: full concentration effect, 2.5 nM [^3H]MLA (footnote)
T2 construct: Whole brain, excluding cortex and cerebellum, was homogenized; from tissue; host or cells: rat brain membranes (whole brain excluding cortex and cerebellum)
Description: as §1
as §2, with “Samples (250 μl) contained 100-140 μg of membrane protein, 3 nM [^3H]nicotine or 3 nM [^3H]methyllycaconitine (MLA), and test compounds of Formula (I) (100 nM) in assay buffer containing 50 mM Tris.” left out, “In the [^3H]nicotine-binding assay and [^3H]MLA-binding assay, nonspecific-binding was determined in the presence of 10 μM nicotine and 10 μM MLA, respectively.” left out, “protein. […]” for “protein.”

T1 sequence (P09483 31-630): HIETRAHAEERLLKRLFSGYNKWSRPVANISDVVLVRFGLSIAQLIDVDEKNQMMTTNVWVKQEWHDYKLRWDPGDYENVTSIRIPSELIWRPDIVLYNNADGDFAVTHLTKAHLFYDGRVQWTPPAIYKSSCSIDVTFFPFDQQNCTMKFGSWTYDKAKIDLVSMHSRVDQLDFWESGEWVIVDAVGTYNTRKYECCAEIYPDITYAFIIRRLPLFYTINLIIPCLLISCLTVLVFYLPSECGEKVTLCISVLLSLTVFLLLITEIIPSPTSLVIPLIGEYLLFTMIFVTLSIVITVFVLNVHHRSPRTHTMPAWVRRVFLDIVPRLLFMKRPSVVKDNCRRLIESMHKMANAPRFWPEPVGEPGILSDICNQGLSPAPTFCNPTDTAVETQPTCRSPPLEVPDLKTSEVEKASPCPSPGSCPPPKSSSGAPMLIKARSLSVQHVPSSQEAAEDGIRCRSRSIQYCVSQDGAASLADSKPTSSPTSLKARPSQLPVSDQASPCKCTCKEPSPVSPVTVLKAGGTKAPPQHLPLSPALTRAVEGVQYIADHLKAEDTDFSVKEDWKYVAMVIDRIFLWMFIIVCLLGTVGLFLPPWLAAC
T1 sequence (P12390 25-500): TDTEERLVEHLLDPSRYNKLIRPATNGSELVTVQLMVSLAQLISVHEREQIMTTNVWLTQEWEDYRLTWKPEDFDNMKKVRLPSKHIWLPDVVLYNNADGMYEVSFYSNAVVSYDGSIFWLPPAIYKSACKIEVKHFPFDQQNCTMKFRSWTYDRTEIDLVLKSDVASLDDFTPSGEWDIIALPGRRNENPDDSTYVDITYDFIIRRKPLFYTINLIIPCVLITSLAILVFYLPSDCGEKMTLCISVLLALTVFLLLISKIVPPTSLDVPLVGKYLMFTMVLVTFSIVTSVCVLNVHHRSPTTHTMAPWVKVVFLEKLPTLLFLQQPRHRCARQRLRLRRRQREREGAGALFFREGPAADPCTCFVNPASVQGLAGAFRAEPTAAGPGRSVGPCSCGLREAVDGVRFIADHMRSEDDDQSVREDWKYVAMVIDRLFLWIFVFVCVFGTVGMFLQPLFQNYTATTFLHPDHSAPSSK
T2 sequence (Q05941 23-502): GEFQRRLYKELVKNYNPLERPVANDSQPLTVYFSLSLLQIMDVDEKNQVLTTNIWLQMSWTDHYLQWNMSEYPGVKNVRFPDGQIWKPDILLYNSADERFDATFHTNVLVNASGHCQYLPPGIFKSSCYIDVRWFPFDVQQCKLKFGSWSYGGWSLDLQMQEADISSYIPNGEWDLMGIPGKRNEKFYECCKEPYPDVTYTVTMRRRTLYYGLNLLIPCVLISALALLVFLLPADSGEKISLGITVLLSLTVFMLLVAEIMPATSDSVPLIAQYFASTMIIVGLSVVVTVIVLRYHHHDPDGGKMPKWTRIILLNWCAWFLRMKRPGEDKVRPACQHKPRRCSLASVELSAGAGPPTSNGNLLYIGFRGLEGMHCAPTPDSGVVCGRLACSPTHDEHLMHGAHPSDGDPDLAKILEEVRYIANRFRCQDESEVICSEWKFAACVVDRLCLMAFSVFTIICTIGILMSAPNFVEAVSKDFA

Row | Compound | inhibition at 0.1 µM [1] [%] | inhibition at 0.1 µM [2] [%] | inhibition at 0.1 µM [3] [%] | Ki [1] [µM] | Ki [3] [µM]
1 | CCCCc1ccc(C#CCC[n+]2ccc(C)cc2)cc1 | 6 | 11 | 3 |  | 
2 | CCCCc1ccc(C#CCC[n+]2cccc(CCCO)c2)cc1 | 0 |  | 0 |  | 
3 | c1ccc(-c2ccc(CCCCC[n+]3ccccc3)cc2)cc1 |  | 30 |  |  | 
4 | CCCCc1ccc[n+](CCCCCc2ccc(-c3ccccc3)cc2)c1 |  | 43 |  |  | 
5 | Cc1cc[n+](CCCC#Cc2ccc(-c3ccccc3)cc2)cc1 | 0 | 40 | 3 |  | 
6 | Cc1cc[n+](CCCCCc2ccc(-c3ccccc3)cc2)c(C)c1 |  | 39 |  |  | 
7 | c1cncc(CCCCCCCCCCCCC[n+]2ccc3c(c2)CCCC3)c1 |  | 0 |  | > 100 | 7.2
8 | Cc1cc[n+](CCCC#Cc2ccc(-c3ccccc3)cc2)c(C)c1 | 2 | 5 | 6 |  | 
9 | Cc1cc[n+](CCCCCCCCc2ccccc2)cc1 |  | 12 |  | > 100 | 27
10 | CCCCc1ccc(CCCC[n+]2cccc(C)c2)cc1 | 4 | 33 | 2 |  | 
11 | CCCCc1ccc(C#CCC[n+]2cc(C)cc(C)c2)cc1 | 0 |  | 0 |  | 
12 | CCCCc1ccc(C#CCC[n+]2ccc(C)c(C)c2)cc1 | 0 |  | 10 |  | 
13 | CCCCc1ccc(C#CCC[n+]2cccc(C)c2)cc1 | 0 | 11 | 0 |  | 
14 | c1ccc(-c2ccc(CCCCC[n+]3ccc4ccccc4c3)cc2)cc1 | 0 |  | 6 |  | 
15 | Cc1cc[n+](CCCCCc2ccc(-c3ccccc3)cc2)cc1C |  | 38 |  |  | 
16 | CCCCc1ccc(CCCC[n+]2cc(C)cc(C)c2)cc1 | 0 |  | 0 |  | 
17 | CCCCc1ccc(CCCC[n+]2ccc(C)c(C)c2)cc1 | 0 |  | 0 |  | 
18 | c1ccc(-c2ccc(CCCCC[n+]3cccc4ccccc43)cc2)cc1 |  | 61 |  |  | 
19 | C(#Cc1ccc(-c2ccccc2)cc1)CCC[n+]1ccc2ccccc2c1 | 0 |  | 6 |  | 
20 | Cc1cc(C)c[n+](CCCCCc2ccc(-c3ccccc3)cc2)c1 |  | 51 |  |  | 
21 | Cc1cccc[n+]1CCCCCc1ccc(-c2ccccc2)cc1 |  | 45 |  |  | 
